From US20100144773A1 (priority 2007, published 2010)
Read-outs that look alike come from different tables or passages of the source.

System: male Wistar rats injected with beta-amyloid peptide 25-35 into NBM
Settings: 1 mg/kg once a day for 7 days from day 16 after amyloid injection, retention trial 24 h after acquisition, cut-off 180 s, n=8, control 48 ± 11
Description: Beta-amyloid was administered bilaterally into NBM of male Wistar rats in dose of 2 μg per each side. […] Control rats received saline intranasally. On day next to the last day of the treatment, passive avoidance performance in rats was tested for two consecutive days. A two-compartment, step-through, passive avoidance apparatus consisting of illuminated (25×40×25 cm) and dark (25×40×25 cm) compartments attached to an electrified grid floor and separated by a guillotine door (8×8 cm) was used. In the acquisition trial, the rat was placed in the illuminated compartment in a position its tail directed to the closed door for 2 min to habituate to the apparatus. The guillotine door was opened and time to enter to dark compartment was recorded. When the rat entered to dark compartment completely (four foots in dark compartment), the guillotine door was closed and the rat was delivered an electrical shock of 0.8 mA for 3 sec through the grid floor. After the shock, the rat was immediately placed in home cage. In the retention trial, conducted 24 h after the acquisition trial, the rat was placed in the illuminated compartment and the retention latency to enter into the dark compartment was recorded until 180 s had elapsed. […] Data are presented as retention latency mean±SD (n=8).

SMILES	Latency (retention latency to enter the dark compartment, mean±SD) (intranasally)	Latency (retention latency to enter the dark compartment, mean±SD) (intraperitoneally)
C[N+](C)(C)CCO.O=C([O-])CCC(=O)O [Compound of formula (I)]	103 ± 18 s	55 ± 18 s
C[N+](C)(C)CCO.O=C([O-])CCC(=O)[O-].[Na+] [Compound of formula (III)]	87 ± 19 s	53 ± 28 s
C[N+](C)(C)CCO.O=C([O-])CCC(=O)[O-].[K+] [Compound of formula (IV)]	65 ± 16 s	49 ± 17 s
